Measurements as given in ChEMBL document CHEMBL1141978, “Synthesis and antibacterial activities of 5-hydroxy-4-amino-2(5H)-furanones” (2005).
Values after ≈ are worked out from the molar mass of the structure shown.

Tests used:
Staphylococcus aureus [1] = test: Zone of inhibition of Staphylococcus aureus after treatment with the compound; format: functional
Pseudomonas aeruginosa [2] = test: Zone of inhibition of Pseudomonas aeruginosa after treatment with the compound; format: functional
Escherichia coli [3] = test: Zone of inhibition of Escherichia coli after treatment with the compound; format: functional
Staphylococcus aureus [4] = test: Zone of inhibition of Staphylococcus aureus after treatment with the 30 ug of the compound; format: functional
Escherichia coli [5] = test: Zone of inhibition of Escherichia coli after treatment with the 30 ug of the compound; format: functional
Pseudomonas aeruginosa [6] = test: Zone of inhibition of Pseudomonas aeruginosa after treatment with the 30 ug of the compound; format: functional
Escherichia coli [7] = test: Minimum […] concentration in Escherichia coli E1 strain was determined; format: functional
Escherichia coli [8] = test: Minimum inhibitory concentration in Escherichia coli ATCC 25922 strain was determined; format: functional
Staphylococcus aureus [9] = test: Minimum […] concentration in Staphylococcus aureus ATCC 25923 strain was determined; format: functional
Acinetobacter sp. [10] = test: Minimum […] concentration in Acinetobacter species A1 strain was determined; format: functional
Klebsiella pneumoniae [11] = test: Minimum inhibitory concentration in Klebsiella pneumoniae K1 strain was determined; format: functional
Klebsiella pneumoniae [12] = test: Minimum […] concentration in Klebsiella pneumoniae K1 strain was determined; format: functional
Staphylococcus aureus [13] = test: Minimum inhibitory concentration in Staphylococcus aureus S1 strain was determined; format: functional
Staphylococcus aureus [14] = test: Minimum […] concentration in Staphylococcus aureus S1 strain was determined; format: functional
Pseudomonas aeruginosa [15] = test: Minimum inhibitory concentration in Pseudomonas aeruginosa P7 strain was determined; format: functional
Escherichia coli [16] = test: Minimum inhibitory concentration in Escherichia coli E1 strain was determined; format: functional
Pseudomonas aeruginosa [17] = test: Minimum […] concentration in Pseudomonas aeruginosa P12 strain was determined; format: functional
Pseudomonas aeruginosa [18] = test: Minimum […] concentration in Pseudomonas aeruginosa P7 strain was determined; format: functional
Acinetobacter sp. [19] = test: Minimum inhibitory concentration in Acinetobacter species A2 strain was determined; format: functional
Pseudomonas aeruginosa [20] = test: Minimum […] concentration in Pseudomonas aeruginosa ATCC 27853 was determined; format: functional
Escherichia coli [21] = test: Minimum […] concentration in Escherichia coli E3 strain was determined; format: functional
Klebsiella pneumoniae [22] = test: Minimum […] concentration in Klebsiella pneumoniae K2 strain was determined; format: functional
Staphylococcus aureus [23] = test: Minimum […] concentration in Staphylococcus aureus S2 strain was determined; format: functional
[24] = Minimum […] concentration in Enterobacter En3 strain was determined; format: functional
Acinetobacter sp. [25] = test: Minimum inhibitory concentration in Acinetobacter species A1 strain was determined; format: functional
Acinetobacter sp. [26] = test: Minimum […] concentration in Acinetobacter species A2 strain was determined; format: functional
[27] = Minimum […] concentration in Enterobacter En1 strain was determined; format: functional
Staphylococcus aureus [28] = test: Zone of inhibition of Staphylococcus aureus after treatment with compound; format: functional
[29] = Minimum inhibitory concentration in Enterobacter En1 strain was determined; format: functional
Escherichia coli [30] = test: Minimum […] concentration Escherichia coli ATCC 25922 strain was determined; format: functional
Staphylococcus aureus [31] = test: Minimum inhibitory concentration in Staphylococcus aureus ATCC 25923 strian was determined; format: functional
Pseudomonas aeruginosa [32] = test: Minimum inhibitory concentration in Pseudomonas aeruginosa ATCC 27853 strain was determined; format: functional
Pseudomonas aeruginosa [33] = test: Minimum inhibitory concentration in Pseudomonas aeruginosa P12 strain was determined; format: functional
[34] = Minimum inhibitory concentration in Enterobacter En3 strain was determined; format: functional
Staphylococcus aureus [35] = test: Minimum inhibitory concentration in Staphylococcus aureus S2 strain was determined; format: functional
Escherichia coli [36] = test: Minimum inhibitory concentration in Escherichia coli E3 strain was determined; format: functional
Klebsiella pneumoniae [37] = test: Minimum inhibitory concentration in Klebsiella pneumoniae K2 strain was determined; format: functional
Escherichia coli [38] = test: Zone of inhibition of Escherichia coli after treatment with 10 ug of the compound; format: functional, organism-based
Staphylococcus aureus [39] = test: Zone of inhibition of Staphylococcus aureus after treatment with 10 ug of the compound; format: functional, organism-based
Pseudomonas aeruginosa [40] = test: Zone of inhibition of Pseudomonas aeruginosa after treatment with 10 ug of the compound; format: functional, organism-based

Work on `C[S+](C)[O-]` [DIMETHYL SULFOXIDE] yielded an Inhibition (Staphylococcus aureus [1]) of 0 mm, an Inhibition (Pseudomonas aeruginosa [2]) of 0 mm and an Inhibition (Escherichia coli [3]) of 0 mm.

`O=C(N[C@H](CO)[C@H](O)c1ccc([N+](=O)[O-])cc1)C(Cl)Cl` [CHLORAMPHENICOL] showed an Inhibition (Staphylococcus aureus [4]) of 0 mm, an Inhibition (Escherichia coli [5]) of 15 mm and an Inhibition (Pseudomonas aeruginosa [6]) of 0 mm.

`OC1=C(Cl)/C(=N\Cc2ccccc2)C(O)O1` (stereo unspecified) showed an MBC (Escherichia coli [7]) of 16 µg/mL (≈ 66.8 µM), an MIC (Escherichia coli [8]) of 8 µg/mL (≈ 33.4 µM) and an MBC (Staphylococcus aureus [9]) of 8 µg/mL (≈ 33.4 µM). For the same compound, the MBC (Acinetobacter sp. [10]) was 8 µg/mL (≈ 33.4 µM), the MIC (Klebsiella pneumoniae [11]) was 32 µg/mL (≈ 134 µM) and the MBC (Klebsiella pneumoniae [12]) was 32 µg/mL (≈ 134 µM). For the same compound, the MIC (Staphylococcus aureus [13]) was 16 µg/mL (≈ 66.8 µM), the MBC (Staphylococcus aureus [14]) was 32 µg/mL (≈ 134 µM) and the MIC (Pseudomonas aeruginosa [15]) was 32 µg/mL (≈ 134 µM). It also gave an Inhibition (Pseudomonas aeruginosa [2]) of 6 mm, an MIC (Escherichia coli [16]) of 16 µg/mL (≈ 66.8 µM) and an MBC (Pseudomonas aeruginosa [17]) of 32 µg/mL (≈ 134 µM). It also gave an MBC (Pseudomonas aeruginosa [18]) of 32 µg/mL (≈ 134 µM), an MIC (Acinetobacter sp. [19]) of 8 µg/mL (≈ 33.4 µM) and an MBC (Pseudomonas aeruginosa [20]) of 64 µg/mL (≈ 267 µM). For the same compound, the MBC (Escherichia coli [21]) was 32 µg/mL (≈ 134 µM), the MBC (Klebsiella pneumoniae [22]) was 32 µg/mL (≈ 134 µM) and the MBC (Staphylococcus aureus [23]) was 32 µg/mL (≈ 134 µM). For the same compound, the MBC [24] was 32 µg/mL (≈ 134 µM), the MIC (Acinetobacter sp. [25]) was 4 µg/mL (≈ 16.7 µM) and the MBC (Acinetobacter sp. [26]) was 16 µg/mL (≈ 66.8 µM). For the same compound, the MBC [27] was 16 µg/mL (≈ 66.8 µM), the Inhibition (Staphylococcus aureus [28]) was 16 mm and the MIC [29] was 8 µg/mL (≈ 33.4 µM). For the same compound, the Inhibition (Escherichia coli [3]) was 6 mm, the MBC (Escherichia coli [30]) was 16 µg/mL (≈ 66.8 µM) and the MIC (Staphylococcus aureus [31]) was 4 µg/mL (≈ 16.7 µM). For the same compound, the MIC (Pseudomonas aeruginosa [32]) was 32 µg/mL (≈ 134 µM), the MIC (Pseudomonas aeruginosa [33]) was 16 µg/mL (≈ 66.8 µM) and the MIC [34] was 16 µg/mL (≈ 66.8 µM). The MIC (Staphylococcus aureus [35]) was 32 µg/mL (≈ 134 µM), the MIC (Escherichia coli [36]) was 16 µg/mL (≈ 66.8 µM) and the MIC (Klebsiella pneumoniae [37]) was 16 µg/mL (≈ 66.8 µM).

In the case of GENTAMICIN, the Inhibition (Escherichia coli [38]) is reported as 25 mm, the Inhibition (Staphylococcus aureus [39]) is reported as 31 mm and the Inhibition (Pseudomonas aeruginosa [40]) is reported as 0 mm.

For `C/N=C1\C(Br)=C(O)OC1O` (stereo unspecified), the Inhibition (Pseudomonas aeruginosa [2]) was 7 mm, the Inhibition (Staphylococcus aureus [28]) was 16 mm and the Inhibition (Escherichia coli [3]) was 9 mm.

With `C/N=C1\C(Cl)=C(O)OC1O` (stereo unspecified) the MBC (Escherichia coli [7]) was 32 µg/mL (≈ 196 µM), the MIC (Escherichia coli [8]) was 16 µg/mL (≈ 97.8 µM) and the MBC (Staphylococcus aureus [9]) was 16 µg/mL (≈ 97.8 µM). The MBC (Acinetobacter sp. [10]) was 16 µg/mL (≈ 97.8 µM), the MIC (Klebsiella pneumoniae [11]) was 16 µg/mL (≈ 97.8 µM) and the MBC (Klebsiella pneumoniae [12]) was 32 µg/mL (≈ 196 µM). The MIC (Staphylococcus aureus [13]) was 16 µg/mL (≈ 97.8 µM), the MBC (Staphylococcus aureus [14]) was 32 µg/mL (≈ 196 µM) and the MIC (Pseudomonas aeruginosa [15]) was 32 µg/mL (≈ 196 µM). For the same compound, the Inhibition (Pseudomonas aeruginosa [2]) was 8 mm, the MIC (Escherichia coli [16]) was 32 µg/mL (≈ 196 µM) and the MBC (Pseudomonas aeruginosa [17]) was 64 µg/mL (≈ 391 µM). The MBC (Pseudomonas aeruginosa [18]) was 64 µg/mL (≈ 391 µM), the MIC (Acinetobacter sp. [19]) was 64 µg/mL (≈ 391 µM) and the MBC (Pseudomonas aeruginosa [20]) was 32 µg/mL (≈ 196 µM). The MBC (Escherichia coli [21]) was 64 µg/mL (≈ 391 µM), the MBC (Klebsiella pneumoniae [22]) was 64 µg/mL (≈ 391 µM) and the MBC (Staphylococcus aureus [23]) was 8 µg/mL (≈ 48.9 µM). For the same compound, the MBC [24] was 32 µg/mL (≈ 196 µM), the MIC (Acinetobacter sp. [25]) was 8 µg/mL (≈ 48.9 µM) and the MBC (Acinetobacter sp. [26]) was 64 µg/mL (≈ 391 µM). It also gave an MBC [27] of 64 µg/mL (≈ 391 µM), an Inhibition (Staphylococcus aureus [28]) of 10 mm and an MIC [29] of 32 µg/mL (≈ 196 µM). For the same compound, the Inhibition (Escherichia coli [3]) was 11 mm, the MBC (Escherichia coli [30]) was 32 µg/mL (≈ 196 µM) and the MIC (Staphylococcus aureus [31]) was 8 µg/mL (≈ 48.9 µM). It also gave an MIC (Pseudomonas aeruginosa [32]) of 16 µg/mL (≈ 97.8 µM), an MIC (Pseudomonas aeruginosa [33]) of 32 µg/mL (≈ 196 µM) and an MIC [34] of 32 µg/mL (≈ 196 µM). The MIC (Staphylococcus aureus [35]) was 4 µg/mL (≈ 24.5 µM), the MIC (Escherichia coli [36]) was 64 µg/mL (≈ 391 µM) and the MIC (Klebsiella pneumoniae [37]) was 32 µg/mL (≈ 196 µM).

`N=C1C(Cl)=C(O)OC1O` (stereo unspecified) showed an MBC (Escherichia coli [7]) of 64 µg/mL (≈ 428 µM), an MIC (Escherichia coli [8]) of 64 µg/mL (≈ 428 µM) and an MBC (Staphylococcus aureus [9]) of 32 µg/mL (≈ 214 µM). It also gave an MBC (Acinetobacter sp. [10]) of 32 µg/mL (≈ 214 µM), an MIC (Klebsiella pneumoniae [11]) of 32 µg/mL (≈ 214 µM) and an MBC (Klebsiella pneumoniae [12]) of 64 µg/mL (≈ 428 µM). The MIC (Staphylococcus aureus [13]) was 16 µg/mL (≈ 107 µM), the MBC (Staphylococcus aureus [14]) was 16 µg/mL (≈ 107 µM) and the MIC (Pseudomonas aeruginosa [15]) was 32 µg/mL (≈ 214 µM). The Inhibition (Pseudomonas aeruginosa [2]) was 8 mm, the MIC (Escherichia coli [16]) was 32 µg/mL (≈ 214 µM) and the MBC (Pseudomonas aeruginosa [17]) was 128 µg/mL (≈ 856 µM). It also gave an MBC (Pseudomonas aeruginosa [18]) of 64 µg/mL (≈ 428 µM), an MIC (Acinetobacter sp. [19]) of 32 µg/mL (≈ 214 µM) and an MBC (Pseudomonas aeruginosa [20]) of 64 µg/mL (≈ 428 µM). The MBC (Escherichia coli [21]) was 128 µg/mL (≈ 856 µM), the MBC (Klebsiella pneumoniae [22]) was 128 µg/mL (≈ 856 µM) and the MBC (Staphylococcus aureus [23]) was 8 µg/mL (≈ 53.5 µM). For the same compound, the MBC [24] was 64 µg/mL (≈ 428 µM), the MIC (Acinetobacter sp. [25]) was 16 µg/mL (≈ 107 µM) and the MBC (Acinetobacter sp. [26]) was 64 µg/mL (≈ 428 µM). It also gave an MBC [27] of 64 µg/mL (≈ 428 µM), an Inhibition (Staphylococcus aureus [28]) of 16 mm and an MIC [29] of 64 µg/mL (≈ 428 µM). For the same compound, the Inhibition (Escherichia coli [3]) was 8 mm, the MBC (Escherichia coli [30]) was 128 µg/mL (≈ 856 µM) and the MIC (Staphylococcus aureus [31]) was 16 µg/mL (≈ 107 µM). For the same compound, the MIC (Pseudomonas aeruginosa [32]) was 32 µg/mL (≈ 214 µM), the MIC (Pseudomonas aeruginosa [33]) was 64 µg/mL (≈ 428 µM) and the MIC [34] was 64 µg/mL (≈ 428 µM). It also gave an MIC (Staphylococcus aureus [35]) of 4 µg/mL (≈ 26.7 µM), an MIC (Escherichia coli [36]) of 64 µg/mL (≈ 428 µM) and an MIC (Klebsiella pneumoniae [37]) of 128 µg/mL (≈ 856 µM).
